Read-outs that look alike come from different tables or passages of the source.
Target: T1, ER (Homo sapiens, UniProt P03372)
T1 construct: host or cells: T47D and MCF7 human breast cancer cells
T1 sequence (P03372 1-595): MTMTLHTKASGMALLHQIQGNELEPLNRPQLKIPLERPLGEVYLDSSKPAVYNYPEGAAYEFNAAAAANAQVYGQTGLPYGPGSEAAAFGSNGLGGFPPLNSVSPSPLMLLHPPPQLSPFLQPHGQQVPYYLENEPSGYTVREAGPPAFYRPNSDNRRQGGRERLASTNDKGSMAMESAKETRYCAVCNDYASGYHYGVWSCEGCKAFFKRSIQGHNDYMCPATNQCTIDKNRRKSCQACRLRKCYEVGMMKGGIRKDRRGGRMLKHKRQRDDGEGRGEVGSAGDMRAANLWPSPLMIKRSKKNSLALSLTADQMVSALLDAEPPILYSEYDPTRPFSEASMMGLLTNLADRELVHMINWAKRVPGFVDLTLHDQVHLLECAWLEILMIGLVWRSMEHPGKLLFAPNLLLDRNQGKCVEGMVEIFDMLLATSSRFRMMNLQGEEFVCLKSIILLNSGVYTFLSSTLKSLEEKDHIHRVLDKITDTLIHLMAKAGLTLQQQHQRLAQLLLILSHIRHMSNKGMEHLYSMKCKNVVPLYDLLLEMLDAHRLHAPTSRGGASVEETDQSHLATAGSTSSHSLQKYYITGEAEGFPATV
Assay: ER degradation activity, in-cell western blot analysis in T47D cells
Assay type: cell-based
How it was run: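 T47D cells grown in DMEM with 10% FBS were treated with compounds for 16 hours at 0.5% DMSO final. ER was detected by in-cell western using 680/800 near-infrared secondary antibodies. Residual ER is given as percent of untreated and DMSO-treated wells set to 100%.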

[1] = 16 hours, Table A does not say which cell line (T47D or MCF7), read-out: Potency (DC50)
[2] = compounds 16 hours, Table A does not say whether T47D or MCF7, read-out: Potency (DC50)

| Structure (SMILES) | DC50 [1] [nM] | DC50 [2] [nM] |
| --- | --- | --- |
| O=C1CCC(N2Cc3cc4c(cc3C2=O)CN(C(=O)C2CCN(CC3CN(c5ccc([C@@H]6c7ccc(O)cc7CC[C@@H]6c6ccccc6)cc5)C3)CC2)C4)C(=O)N1 (stereo partly drawn) [E 296, 3-(6-(1-((1-(4-((1R,2S)-6-hydroxy-2-phenyl-1,2,3,4-tetrahydronaphthalen-1-yl)phenyl)azetidin-3-yl)methyl)piperidine-4-carbonyl)-1-oxo-3,5,6,7-tetrahydropyrrolo[3,4-f]isoindol-2(1H)-yl)piperidine-2,6-dione] | > 100 | – |
| C[C@@H]1Cc2c([nH]c3ccccc23)[C@@H](c2c(F)cc(C3CCC(C(=O)N4CCC(N5Cc6cc7c(cc6C5)C(=O)N(C5CCC(=O)NC5=O)C7)CC4)CC3)cc2F)N1CC(F)F (stereo partly drawn) [E 307, 3-(6-(1-(4-(4-((1R,3R)-2-(2,2-difluoroethyl)-3-methyl-2,3,4,9-tetrahydro-1H-pyrido[3,4-b]indol-1-yl)-3,5-difluorophenyl)cyclohexane-1-carbonyl)piperidin-4-yl)-1-oxo-3,5,6,7-tetrahydropyrrolo[3,4-f]isoindol-2(1H)-yl)piperidine-2,6-dione] | < 10 | – |
| O=C1CCC(N2Cc3cc4c(cc3C2=O)C(=O)N(CC2CN(CC3CCN(c5ccc([C@@H]6c7ccc(O)cc7CC[C@@H]6c6ccccc6)cc5)CC3)C2)C4)C(=O)N1 (stereo partly drawn) [E 508, 2-(2,6-dioxopiperidin-3-yl)-6-((1-((1-(4-((1R,2S)-6-hydroxy-2-phenyl-1,2,3,4-tetrahydronaphthalen-1-yl)phenyl)piperidin-4-yl)methyl)azetidin-3-yl)methyl)-2,3,5,6-tetrahydropyrrolo[3,4-f]isoindole-1,7-dione] | – | > 100 |
| C[C@@H]1Cc2cc(O)ccc2[C@@H](c2ccc(N3CCC4(CCN(C(=O)CN5Cc6cc7c(cc6C5)C(=O)N(C5CCC(=O)NC5=O)C7=O)CC4)CC3)cc2)N1CC(F)F (stereo partly drawn) [E 301, 6-(2-(9-(4-((1R,3R)-2-(2,2-difluoroethyl)-6-hydroxy-3-methyl-1,2,3,4-tetrahydroisoquinolin-1-yl)phenyl)-3,9-diazaspiro[5.5]undecan-3-yl)-2-oxoethyl)-2-(2,6-dioxopiperidin-3-yl)-6,7-dihydropyrrolo[3,4-f]isoindole-1,3(2H,5H)-dione] | 10 to 100 | – |
| C[C@@H]1Cc2c([nH]c3ccccc23)[C@@H](c2c(F)cc(N3CCC4(CCN(CC5Cc6cc7c(cc6C5)C(=O)N(C5CCC(=O)NC5=O)C7=O)CC4)CC3)cc2F)N1CC(F)(F)F (stereo partly drawn) [E 231, 6-((9-(3,5-difluoro-4-((1R,3R)-3-methyl-2-(2,2,2-trifluoroethyl)-2,3,4,9-tetrahydro-1H-pyrido[3,4-b]indol-1-yl)phenyl)-3,9-diazaspiro[5.5]undecan-3-yl)methyl)-2-(2,6-dioxopiperidin-3-yl)-6,7-dihydrocyclopenta[f]isoindole-1,3(2H,5H)-dione] | > 100 | – |
| C[C@@H]1Cc2c([nH]c3ccccc23)[C@@H](c2c(F)cc(-c3ccc(C(=O)N4CCC(N5Cc6cc7c(cc6C5)C(=O)N(C5CCC(=O)NC5=O)C7=O)CC4)nn3)cc2F)N1CC(F)F (stereo partly drawn) [E 345, 6-(1-(6-(4-((1R,3R)-2-(2,2-difluoroethyl)-3-methyl-2,3,4,9-tetrahydro-1H-pyrido[3,4-b]indol-1-yl)-3,5-difluorophenyl)pyridazine-3-carbonyl)piperidin-4-yl)-2-(2,6-dioxopiperidin-3-yl)-6,7-dihydropyrrolo[3,4-f]isoindole-1,3(2H,5H)-dione] | 10 to 100 | – |
| C[C@@H]1Cc2c([nH]c3ccccc23)[C@@H](c2ccc(N3CCC4(CCN(C(=O)CN5Cc6cc7c(cc6C5)C(=O)N(C5CCC(=O)NC5=O)C7=O)CC4)CC3)nc2)N1CC(F)F (stereo partly drawn) [E 281, 6-(2-(9-(5-((1R,3R)-2-(2,2-difluoroethyl)-3-methyl-2,3,4,9-tetrahydro-1H-pyrido[3,4-b]indol-1-yl)pyridin-2-yl)-3,9-diazaspiro[5.5]undecan-3-yl)-2-oxoethyl)-2-(2,6-dioxopiperidin-3-yl)-6,7-dihydropyrrolo[3,4-f]isoindole-1,3(2H,5H)-dione] | 10 to 100 | – |
| O=C1CCC(N2C(=O)c3cc4c(cc3C2=O)CN(CC(=O)N2CCC(N3CC(Oc5ccc([C@@H]6c7ccc(O)cc7CC[C@@H]6c6ccccc6)cc5)C3)CC2)C4)C(=O)N1 (stereo partly drawn) [E 377, 2-(2,6-dioxopiperidin-3-yl)-6-(2-(4-(3-(4-((1R,2S)-6-hydroxy-2-phenyl-1,2,3,4-tetrahydronaphthalen-1-yl)phenoxy)azetidin-1-yl)piperidin-1-yl)-2-oxoethyl)-6,7-dihydropyrrolo[3,4-f]isoindole-1,3(2H,5H)-dione] | 10 to 100 | – |
| CCC(=C(c1ccc(O)cc1)c1ccc(N2CCC3(CCN(C(=O)CN4Cc5cc6c(cc5C4)C(=O)N(C4CCC(=O)NC4=O)C6=O)CC3)C2)cc1)c1ccccc1 (stereo not shown) [E 189, 2-(2,6-dioxopiperidin-3-yl)-6-(2-(2-(4-(1-(4-hydroxyphenyl)-2-phenylbut-1-en-1-yl)phenyl)-2,8-diazaspiro[4.5]decan-8-yl)-2-oxoethyl)-6,7-dihydropyrrolo[3,4-f]isoindole-1,3(2H,5H)-dione] | 10 to 100 | – |
| C[C@@H]1Cc2cc(O)ccc2[C@@H](c2c(F)cc(N3CCC4(CCN(C(=O)CN5Cc6cc7c(cc6C5)C(=O)N(C5CCC(=O)NC5=O)C7)C4)C3)cc2F)N1CC(C)(F)F (stereo partly drawn) [E 28, 3-(6-(2-(7-(4-((1S,3R)-2-(2,2-difluoropropyl)-6-hydroxy-3-methyl-1,2,3,4-tetrahydroisoquinolin-1-yl)-3,5-difluorophenyl)-2,7-diazaspiro[4.4]nonan-2-yl)-2-oxoethyl)-1-oxo-3,5,6,7-tetrahydropyrrolo[3,4-f]isoindol-2(1H)-yl)piperidine-2,6-dione] | > 100 | – |
| C[C@@H]1Cc2c([nH]c3ccccc23)[C@@H](c2c(F)cc(N3CCC(CN4CCC(N5Cc6cc7c(cc6C5)C(=O)N(C5CCC(=O)NC5=O)C7=O)CC4)CC3)cc2F)N1CC(F)F (stereo partly drawn) [E 251, 6-(1-((1-(4-((1R,3R)-2-(2,2-difluoroethyl)-3-methyl-2,3,4,9-tetrahydro-1H-pyrido[3,4-b]indol-1-yl)-3,5-difluorophenyl)piperidin-4-yl)methyl)piperidin-4-yl)-2-(2,6-dioxopiperidin-3-yl)-6,7-dihydropyrrolo[3,4-f]isoindole-1,3(2H,5H)-dione] | < 10 | – |
| O=C1CCC(N2C(=O)c3cc4c(cc3C2=O)CN(CC2CCN(C(=O)C3CN(c5ccc([C@@H]6c7ccc(O)cc7CC[C@@H]6c6ccccc6)cc5)C3)CC2)C4)C(=O)N1 (stereo partly drawn) [E 201, 2-(2,6-dioxopiperidin-3-yl)-6-((1-(1-(4-((1R,2S)-6-hydroxy-2-phenyl-1,2,3,4-tetrahydronaphthalen-1-yl)phenyl)azetidine-3-carbonyl)piperidin-4-yl)methyl)-6,7-dihydropyrrolo[3,4-f]isoindole-1,3(2H,5H)-dione] | > 100 | – |
| C[C@@H]1Cc2c([nH]c3ccccc23)[C@@H](c2c(F)cc(N3CC4(CC(C(=O)N5CCC(CN6Cc7cc8c(cc7C6)C(=O)N(C6CCC(=O)NC6=O)C8=O)CC5)C4)C3)cc2F)N1CC(F)F (stereo partly drawn) [E 115, 6-((1-(2-(4-((1R,3R)-2-(2,2-difluoroethyl)-3-methyl-2,3,4,9-tetrahydro-1H-pyrido[3,4-b]indol-1-yl)-3,5-difluorophenyl)-2-azaspiro[3.3]heptane-6-carbonyl)piperidin-4-yl)methyl)-2-(2,6-dioxopiperidin-3-yl)-6,7-dihydropyrrolo[3,4-f]isoindole-1,3(2H,5H)-dione] | < 10 | – |
| C[C@@H]1Cc2c([nH]c3ccccc23)[C@@H](c2cnc(N3CC4(CCC(CN5Cc6cc7c(cc6C5)C(=O)N(C5CCC(=O)NC5=O)C7=O)CC4)C3)nc2)N1CC(C)(C)F (stereo partly drawn) [E 471, 2-(2,6-dioxopiperidin-3-yl)-6-((2-(5-((1R,3R)-2-(2-fluoro-2-methylpropyl)-3-methyl-2,3,4,9-tetrahydro-1H-pyrido[3,4-b]indol-1-yl)pyrimidin-2-yl)-2-azaspiro[3.5]nonan-7-yl)methyl)-6,7-dihydropyrrolo[3,4-f]isoindole-1,3(2H,5H)-dione] | – | 10 to 100 |
| C[C@@H]1Cc2cc(O)ccc2[C@@H](c2ccc(N3CCC(C(=O)N4CC(CN5Cc6cc7c(cc6C5)C(=O)N(C5CCC(=O)NC5=O)C7=O)C4)CC3)cn2)N1CC(F)F (stereo partly drawn) [E 351, 6-((1-(1-(6-((1S,3R)-2-(2,2-difluoroethyl)-6-hydroxy-3-methyl-1,2,3,4-tetrahydroisoquinolin-1-yl)pyridin-3-yl)piperidine-4-carbonyl)azetidin-3-yl)methyl)-2-(2,6-dioxopiperidin-3-yl)-6,7-dihydropyrrolo[3,4-f]isoindole-1,3(2H,5H)-dione] | > 100 | – |
| C[C@@H]1Cc2c([nH]c3ccccc23)[C@@H](c2cnc(N3CC4(CCC(CN5Cc6cc7c(cc6C5)C(=O)N(C5CCC(=O)NC5=O)C7=O)CC4)C3)nc2)N1CC(F)(F)CO (stereo partly drawn) [E 513, 6-((2-(5-((1R,3R)-2-(2,2-difluoro-3-hydroxypropyl)-3-methyl-2,3,4,9-tetrahydro-1H-pyrido[3,4-b]indol-1-yl)pyrimidin-2-yl)-2-azaspiro[3.5]nonan-7-yl)methyl)-2-(2,6-dioxopiperidin-3-yl)-6,7-dihydropyrrolo[3,4-f]isoindole-1,3(2H,5H)-dione] | – | 10 to 100 |

— patent US20240190880A1 (THE REGENTS OF THE UNIVERSITY OF MICHIGAN, priority 2021, published 2024)
